Results as given in US6310217A, “Acylpyrroledicarboxylic acids and acylindoledicarboxylic acids and their derivatives as inhibitors of cytosolic phospholipase A2” (Merckle GmbH, priority 1996, dated 2001).
pIC50: −log10 of the molar value.

How the values were obtained:
mice = settings: cited from earlier work
cytosolic PLA2 = molecular target: T1, cytosolic PLA2 (Bos taurus, UniProt A4IFJ5); test: Inhibition of cytosolic phospholipase A2 in intact bovine platelets stimulated with calcium ionophore A23187; released arachidonic acid determined by reversed phase HPLC with UV detection; type: cell-based; settings: A23187 stimulation, 5,8,11,14-eicosatetraynoic acid added, test substances normally dissolved in DMSO
T1 construct: endogenous in cells; host or cells: intact bovine platelets
T1 sequence (A4IFJ5 1-749): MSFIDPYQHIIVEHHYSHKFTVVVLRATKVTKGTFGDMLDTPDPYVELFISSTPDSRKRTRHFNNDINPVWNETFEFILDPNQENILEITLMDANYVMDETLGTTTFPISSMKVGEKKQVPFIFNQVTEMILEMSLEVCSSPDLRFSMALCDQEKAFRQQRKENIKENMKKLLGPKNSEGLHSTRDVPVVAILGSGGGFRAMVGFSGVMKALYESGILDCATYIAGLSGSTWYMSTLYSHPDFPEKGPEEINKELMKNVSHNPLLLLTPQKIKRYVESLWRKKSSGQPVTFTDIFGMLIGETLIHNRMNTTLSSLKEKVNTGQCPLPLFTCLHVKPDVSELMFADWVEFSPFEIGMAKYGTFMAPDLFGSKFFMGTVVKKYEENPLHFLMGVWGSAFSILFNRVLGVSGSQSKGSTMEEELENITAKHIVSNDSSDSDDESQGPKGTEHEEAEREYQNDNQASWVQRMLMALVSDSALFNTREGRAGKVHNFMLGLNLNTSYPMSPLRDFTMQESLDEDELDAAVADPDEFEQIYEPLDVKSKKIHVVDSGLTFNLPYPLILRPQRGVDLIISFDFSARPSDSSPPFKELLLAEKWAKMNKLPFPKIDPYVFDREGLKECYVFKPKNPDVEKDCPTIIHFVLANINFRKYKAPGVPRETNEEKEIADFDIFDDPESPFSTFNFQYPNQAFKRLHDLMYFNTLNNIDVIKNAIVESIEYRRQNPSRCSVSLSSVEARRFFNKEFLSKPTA
Source text: The efficacy of the compounds according to the invention can be determined on the basis of the inhibition of phospholipase A2. For this purpose, the phospholipaase A2 in intact bovine platelets is stimulated with calcium ionophore A23187, and thus the release of arachidonic acid from the membrane phospholipids is induced. In order to prevent metabolism of the enzyme product arachidonic acid by the cyclooxygenase pathway and the 12-lipoxygenase pathway, in this case the dual cyclooxygenase/12-lipoxygenase inhibitor 5,8,11,14-eicosatetraynoic acid is added. After purification by solid phase extraction, the released arachidonic acid is determined by reversed phase HPLC with UV detection. The inhibition of the enzyme by a test substance is evident from the ratio between the amounts of arachidonic acid formed in the presence and in the absence of the test substance. Further details of the test system are to be found in Example 15.
The efficacy of the compounds according to the invention can be determined from the inhibition of phospholipase A2. The assay method used has already been described (see Lehr M., In-vitro assay for the evaluation of phospholipase A2 inhibitors using bovine platelets and HPLC with UV-detection. Pharm.Pharmacol. Lett. 1992, 2, 176-179). The test substances were normally dissolved in DMSO.

| SMILES | analgesic effect (mice) | pIC50 (cytosolic PLA2) |
| --- | --- | --- |
| Cn1c(C(=O)O)ccc1C(=O)C=Cc1ccccc1 [1-methyl-5-(3-phenylacryloyl)pyrrol-2-ylformic acid] | analgesic effect | – |
| CCCCCCCCCCCC(=O)c1c(C)c(CC(=O)O)n(Cc2cccc(/C=C/C(=O)O)c2)c1C [Example 2, (E)-3-{[2-(Carboxymethyl)-4-dodecanoyl-3,5-dimethyl-pyrrol-1-yl]methyl}cinnamic acid] | – | 5.34 |
| CCCCCCCCCCCC(=O)c1c(C)c(CC(=O)O)n(Cc2cccc(CCC(=O)O)c2)c1C [Example 3, 3-(3-{[2-(Carboxymethyl)-4-dodecanoyl-3,5-dimethyl-pyrrol-1-yl]methyl}phenyl)propionic acid] | – | 5.52 |
| CCCCCCCCCCCC(=O)c1c(C(=O)O)n(CCOc2cccc(CC(=O)O)c2)c2ccccc12 [Example 13, 1-{2-[3-(carboxymethyl)phenoxy]ethyl}-3-dodecanoyl-indole-2-carboxylic acid] | – | 5.80 |
| CCCCCCCCCCCC(=O)c1c(C(=O)O)n(CCOc2ccc(CC(=O)O)cc2)c2ccccc12 [Example 14, 1-{2-[4-(Carboxymethyl)phenoxy]ethyl}-3-dodecanoyl-indole-2-carboxylic acid] | – | 5.80 |
